From paper PMC9214071 (Acta Pharmaceutica Sinica. B, 2022)
Values joined by “and” are separate entries in the source; they are usually repeats but may differ in a detail not shown here. Identical values can stand only once. Like-named read-outs stand apart in the source and are kept apart here. Marks after values point to notes of the source that are not given here.

What was measured:
PAK4 [1] = biological target: T1, PAK4 (Homo sapiens, UniProt O96013); test: PAK4 HTRF assay; type: biochemical; details: for LE: Ligand efficiency = (−1.4 Log Ki)/(n heavy atoms); for LE / Ki / LLE: PAK4 Ki; for Ki: HTRF, average of two independent experiments; for LLE: Ligand lipophilicity efficiency = (−Log Ki) − (cLogP)
in vitro = details: CD-1, mouse, mouse liver microsomes, pH 7.4
[2] = Liver microsomal stability assay, MLM
PAK1 = PAK1 (Homo sapiens, UniProt Q13153); test: PAK1 FRET-based Z'-Lyte assay; type: biochemical
A549 = test: Wound-healing assay, A549 cell migration; type: cell-based, human; details: 20 μmol/L
PAK4 [3] = biological target: T1, PAK4; details: read-out: PAK4 Ki (reported); cited from earlier work
[4] = at least two duplicate experiments, SEM < ±20%

T1 sequence (O96013 whole entry): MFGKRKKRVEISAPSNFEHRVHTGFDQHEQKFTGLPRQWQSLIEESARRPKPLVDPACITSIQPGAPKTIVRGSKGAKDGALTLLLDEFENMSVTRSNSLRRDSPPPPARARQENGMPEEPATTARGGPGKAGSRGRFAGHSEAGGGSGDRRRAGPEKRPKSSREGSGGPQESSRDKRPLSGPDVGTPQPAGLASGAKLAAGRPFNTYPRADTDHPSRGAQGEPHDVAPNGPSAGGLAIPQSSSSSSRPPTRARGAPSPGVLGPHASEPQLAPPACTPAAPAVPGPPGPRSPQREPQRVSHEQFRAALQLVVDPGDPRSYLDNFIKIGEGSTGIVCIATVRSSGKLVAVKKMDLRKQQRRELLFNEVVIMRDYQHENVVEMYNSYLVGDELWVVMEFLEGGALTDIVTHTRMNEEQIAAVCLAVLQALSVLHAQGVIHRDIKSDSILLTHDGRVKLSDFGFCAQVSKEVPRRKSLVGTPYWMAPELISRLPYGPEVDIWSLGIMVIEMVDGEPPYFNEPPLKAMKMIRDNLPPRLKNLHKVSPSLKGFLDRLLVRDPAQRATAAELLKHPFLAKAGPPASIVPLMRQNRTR
Chain of PAK1 (Q13153 whole entry): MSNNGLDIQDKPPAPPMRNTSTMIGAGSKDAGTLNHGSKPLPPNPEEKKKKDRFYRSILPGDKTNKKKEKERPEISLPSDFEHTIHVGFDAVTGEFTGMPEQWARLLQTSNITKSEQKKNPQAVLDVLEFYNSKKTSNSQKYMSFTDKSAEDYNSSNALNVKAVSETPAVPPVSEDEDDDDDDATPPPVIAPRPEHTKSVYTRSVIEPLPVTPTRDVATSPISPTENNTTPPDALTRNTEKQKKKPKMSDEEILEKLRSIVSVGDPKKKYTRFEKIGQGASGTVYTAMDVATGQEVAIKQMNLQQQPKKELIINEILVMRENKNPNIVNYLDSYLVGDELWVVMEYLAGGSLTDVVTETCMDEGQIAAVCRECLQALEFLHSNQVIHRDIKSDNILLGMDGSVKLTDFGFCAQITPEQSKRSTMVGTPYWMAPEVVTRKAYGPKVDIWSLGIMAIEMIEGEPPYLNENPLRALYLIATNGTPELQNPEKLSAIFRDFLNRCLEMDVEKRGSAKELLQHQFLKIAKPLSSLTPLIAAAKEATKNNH

| LE (PAK4 [1]) | Ki (PAK4 [1]) | Structure (SMILES) | other results |
| --- | --- | --- | --- |
| 0.39 | 0.066 µM | Nc1nccc(-n2ccc3ccc(C#CC4(O)CCCCC4)cc32)n1 [Compound 5] | – |
| 0.38 | 0.082 µM | Nc1nccc(-n2ccc3cc(F)c(C#CC4(O)CCCCC4)cc32)n1 [Compound 5a] | – |
| 0.40 | 0.04 µM | Nc1nccc(-n2ncc3ccc(C#CC4(O)CCCCC4)cc32)n1 [Compound 6] | – |
| 0.40 | 0.036 µM | Nc1nccc(-n2ccc3ncc(C#CC4(O)CCCCC4)cc32)n1 [Compound 7] | – |
| – | 0.593 µM | Nc1nccc(-n2cc(C(=O)NCc3ccccc3)c3ccc(C#CC4(O)CCCCC4)cc32)n1 [Compound 30] | – |
| – | 0.804 µM | Nc1nccc(-n2cc(C(=O)Nc3ccccc3)c3ccc(C#CC4(O)CCCCC4)cc32)n1 [Compound 31] | – |
| – | 0.243 µM | Nc1nccc(-n2cc(C(=O)Nc3nccs3)c3ccc(C#CC4(O)CCCCC4)cc32)n1 [Compound 32] | – |
| – | 0.239 µM | Nc1nccc(-n2cc(C(=O)Nc3cc[nH]n3)c3ccc(C#CC4(O)CCCCC4)cc32)n1 [Compound 33] | – |
| – | 0.094 µM | Nc1ccn(C(=O)c2cn(-c3ccnc(N)n3)c3cc(C#CC4(O)CCCCC4)ccc23)n1 [Compound 34] | – |
| – | 0.376 µM | Nc1nccc(-n2cc(C(=O)Nc3cc(O)[nH]n3)c3ccc(C#CC4(O)CCCCC4)cc32)n1 [Compound 35] | – |
| – | 0.119 µM | Nc1nccc(-n2cc(C(=O)N3CCOCC3)c3ccc(C#CC4(O)CCCCC4)cc32)n1 [Compound 37] | – |
| – | 0.038 µM | CN1CCN(C(=O)c2cn(-c3ccnc(N)n3)c3cc(C#CC4(O)CCCCC4)ccc23)CC1 [Compound 38] | – |
| – | 0.082 µM | CN(C)C(=O)c1cn(-c2ccnc(N)n2)c2cc(C#CC3(O)CCCCC3)ccc12 [Compound 39] | – |
| – | 0.044 µM | CNC(=O)c1cn(-c2ccnc(N)n2)c2cc(C#CC3(O)CCCCC3)ccc12 [Compound 40] | – |
| – | 0.014 µM | NC(=O)c1cn(-c2ccnc(N)n2)c2cc(C#CC3(O)CCCCC3)ccc12 [Compound 41] | half-life at 1 μmol/L (in vitro): 23.7 min; liver clearance [2]: 6.33 L/h/kg |
| 0.35 | 0.0066 µM | Nc1nccc(-n2cc(C(=O)N3CCNCC3)c3ccc(C#CC4(O)CCCCC4)cc32)n1 [Compound 42] | LLE (PAK4 [1]): 4.97; fold increase of inhibitory capacity compared to 37 (PAK4 [1]; PAK4, relative to 37): 18 fold; Ki (PAK1; [4]): 4.99 µM; A549, effect of compounds on the cell mobility (A549): 65% ^h |
| 0.29 | 0.0426 µM | Nc1nccc(-n2cc(C(=O)N3CCC(N)CC3)c3ccc(C#CC4(O)CCCCC4)cc32)n1 [Compound 43] | LLE (PAK4 [1]): 4.16; Ki (PAK1; [4]): 1.61 µM |
| 0.32 | 0.0083 µM | Nc1nccc(-n2cc(C(=O)NC3CCNCC3)c3ccc(C#CC4(O)CCCCC4)cc32)n1 [Compound 44] | LLE (PAK4 [1]): 5.28; Ki (PAK1; [4]): 4.24 µM |
| 0.30 | 0.0256 µM | Nc1nccc(-n2cc(C(=O)N3CCC[C@H](N)C3)c3ccc(C#CC4(O)CCCCC4)cc32)n1 [Compound 45, (S)-(3-Aminopiperidin-1-yl) (1-(2-aminopyrimidin-4-yl)-6-((1-hydroxycyclohexyl)ethynyl)-1H-indol-3-yl)methanone] | LLE (PAK4 [1]): 4.80; Ki (PAK1; [4]): 2.37 µM |
| 0.34 | 0.0034 µM | Nc1nccc(-n2cc(C(=O)N3CCC[C@@H](N)C3)c3ccc(C#CC4(O)CCCCC4)cc32)n1 [Compound 47] | IC50 (PAK4 [1]): 0.0063 µM; LLE (PAK4 [1]): 5.65; Ki (PAK1): 6.99 µM; Ki (PAK1; [4]): 6.99 µM |
| 0.33 | 0.0056 µM | Nc1nccc(-n2cc(C(=O)N[C@@H]3CCCNC3)c3ccc(C#CC4(O)CCCCC4)cc32)n1 [Compound 48] | LLE (PAK4 [1]): 5.42; Ki (PAK1; [4]): 7.13 µM |
| 0.27 | 0.207 µM | Nc1nccc(-n2cc(C(=O)N3CCC[C@@H](O)C3)c3ccc(C#CC4(O)CCCCC4)cc32)n1 [Compound 49] | LLE (PAK4 [1]): 4.12; factor of reduced activity relative to 47 (PAK4 [1]; PAK4, relative to 47): 60 |
| 0.31 | 0.0272 µM | Nc1nccc(-n2cc(C(=O)N[C@H]3CCNC3)c3ccc(C#CC4(O)CCCCC4)cc32)n1 [Compound 50] | LLE (PAK4 [1]): 4.40 |
| 0.31 | 0.0255 µM | Nc1nccc(-n2cc(C(=O)N3CC[C@@H](N)C3)c3ccc(C#CC4(O)CCCCC4)cc32)n1 [Compound 51] | LLE (PAK4 [1]): 4.42; Ki (PAK1; [4]): 6.34 µM |
| 0.31 | 0.0309 µM | Nc1nccc(-n2cc(C(=O)N[C@@H]3CCNC3)c3ccc(C#CC4(O)CCCCC4)cc32)n1 [Compound 52] | LLE (PAK4 [1]): 5.48 |
| 0.31 | 0.0227 µM | Nc1nccc(-n2cc(C(=O)N3CC[C@H](N)C3)c3ccc(C#CC4(O)CCCCC4)cc32)n1 [Compound 53] | LLE (PAK4 [1]): 4.47; Ki (PAK1; [4]): 2.87 µM |
| 0.27 | 0.148 µM | C[C@@H]1CN(C(=O)c2cn(-c3ccnc(N)n3)c3cc(C#CC4(O)CCCCC4)ccc23)CCN1 [Compound 54] | LLE (PAK4 [1]): 3.53; fold less potency than 55 against PAK4 (PAK4 [1]; relative to 55): approximately 14 fold |
| 0.31 | 0.0181 µM | Nc1nccc(-n2cc(C(=O)N3CCNC(=O)C3)c3ccc(C#CC4(O)CCCCC4)cc32)n1 [Compound 56, 4-(1-(2-Aminopyrimidin-4-yl)-6-((1-hydroxycyclohexyl)ethynyl)-1H-indole-3-carbonyl)piperazin-2-one] | LLE (PAK4 [1]): 5.17; Ki (PAK1; [4]): 4.99 µM |

The next lines start with the compound.

| Structure (SMILES) | LE (PAK4 [1]) | Ki (PAK4 [1]) | other results |
| --- | --- | --- | --- |
| Nc1cc(-n2ccc3ccc(C#CC4(O)CCCCC4)cc32)nc(N)n1 [Compound 5b] | 0.33 | 0.37 µM | – |
| Nc1cc(-n2ccc3ccc(C#CC4(O)CCCCC4)cc32)ncn1 [Compound 5c] | 0.36 | 0.229 µM | – |
| Cc1cnc(N)nc1-n1ccc2ccc(C#CC3(O)CCCCC3)cc21 [Compound 5d] | 0.35 | 0.182 µM | – |
| Nc1nccc(-n2ccc3cnc(C#CC4(O)CCCCC4)cc32)n1 [Compound 8] | 0.42 | 0.013 µM | – |
| Nc1nccc(-n2ccc3ccc(C#CC4(O)CCCCC4)nc32)n1 [Compound 9] | 0.36 | 0.183 µM | – |
| OC1(C#Cc2ccc3ccn(-c4ccnc(NCc5ccccc5)n4)c3c2)CCCCC1 [Compound 10] | – | 0.623 µM | – |
| OC1(C#Cc2ccc3ccn(-c4ccnc(NCc5ccccc5F)n4)c3c2)CCCCC1 [Compound 11] | – | 0.223 µM | – |
| OC1(C#Cc2ccc3ccn(-c4ccnc(NCc5ccccc5Cl)n4)c3c2)CCCCC1 [Compound 12] | – | 0.355 µM | – |
| OC1(C#Cc2ccc3ccn(-c4ccnc(NCc5ccc(F)cc5)n4)c3c2)CCCCC1 [Compound 13] | – | 0.291 µM | – |
| OC1(C#Cc2ccc3ccn(-c4ccnc(NCc5cccs5)n4)c3c2)CCCCC1 [Compound 14] | – | 7.45 µM | – |
| OC1(C#Cc2ccc3ccn(-c4ccnc(Nc5ccccc5)n4)c3c2)CCCCC1 [Compound 15] | – | 0.217 µM | – |
| OC1(C#Cc2ccc3ccn(-c4ccnc(Nc5cccc(Cl)c5)n4)c3c2)CCCCC1 [Compound 16] | – | 0.105 µM | – |
| O=[N+]([O-])c1cccc(Nc2nccc(-n3ccc4ccc(C#CC5(O)CCCCC5)cc43)n2)c1 [Compound 17] | – | 0.157 µM | – |
| N#Cc1cccc(Nc2nccc(-n3ccc4ccc(C#CC5(O)CCCCC5)cc43)n2)c1 [Compound 18] | – | 0.242 µM | – |
| Cc1cccc(Nc2nccc(-n3ccc4ccc(C#CC5(O)CCCCC5)cc43)n2)c1 [Compound 19] | – | 0.212 µM | – |
| OC1(C#Cc2ccc3ccn(-c4ccnc(Nc5ccccc5F)n4)c3c2)CCCCC1 [Compound 20] | – | 0.396 µM | – |
| OC1(C#Cc2ccc3ccn(-c4ccnc(Nc5ccccc5C(F)(F)F)n4)c3c2)CCCCC1 [Compound 21] | – | 0.173 µM | – |
| Cc1ccccc1Nc1nccc(-n2ccc3ccc(C#CC4(O)CCCCC4)cc32)n1 [Compound 22] | – | 0.709 µM | – |
| COc1ccc(Nc2nccc(-n3ccc4ccc(C#CC5(O)CCCCC5)cc43)n2)cc1 [Compound 24] | – | 0.298 µM | – |
| OC1(C#Cc2ccc3ccn(-c4ccnc(Nc5ccc(F)c(Cl)c5)n4)c3c2)CCCCC1 [Compound 25] | – | 0.189 µM | – |
| NS(=O)(=O)c1cccc(Nc2nccc(-n3ccc4ccc(C#CC5(O)CCCCC5)cc43)n2)c1 [Compound 26] | – | 0.083 µM | – |
| COCCNc1nccc(-n2ccc3ccc(C#CC4(O)CCCCC4)cc32)n1 [Compound 28] | – | 0.68 µM | – |
| CC(C)Nc1nccc(-n2ccc3ccc(C#CC4(O)CCCCC4)cc32)n1 [Compound 29] | – | 1.11 µM | – |
| COCCNc1nc2ccc(C#CC3(O)CCCCC3)cc2n1-c1ccnc(N)n1 [GNE-2861, reference compound] | – | 0.035 µM and 0.0353 µM | Ki (PAK1; [4]): 3.13 µM; Ki (PAK4 [3]): 0.003 µM |
